Values after ≈ are worked out from the molar mass of the structure shown.
How the values were obtained:
Assay in all cases: In vitro antibacterial evaluation: minimum inhibitory concentration (MIC), broth dilution method
Assay type in all cases: cell-based
Enterococcus sp. = conditions: broth dilution, 18 hours at 35° C.
Summary of the method: (§1)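 NCCLS M7-A2 broth dilution with Mueller-Hinton II, testing 64-0.06 μg/mL antibiotic against 5×10^5 CFU/mL inocula. Test strains include recent methicillin-, penicillin- or vancomycin-resistant clinical isolates. MIC is the lowest concentration preventing growth.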

Staphylococcus sp. = conditions: broth dilution, 18 hours at 35° C.; for MIC Staphylococcus aureus-SMITH (GC 4543): strain SMITH GC 4543
Summary of the method: as §1

Streptococcus sp. = conditions: broth dilution, 18 hours at 35° C.
Summary of the method: as §1

Escherichia coli = conditions: broth dilution, 18 hours at 35° C.
[1] = Enterococcus faecalis (ATCC 29212)
[2] = Enterococcus faecalis (GC 2242)
[3] = Enterococcus faecalis (GC 2691)
[4] = Enterococcus faecalis (GC 3059)
[5] = Enterococcus faecalis (GC 4552)
[6] = Enterococcus faecalis (GC 4553)
[7] = Enterococcus faecalis (GC 4554)
[8] = Enterococcus faecalis (GC 6189)
[9] = Streptococcus agalactiae (GC 4564)
[10] = Streptococcus pneumoniae (ATCC 6301)
[11] = Streptococcus pneumoniae (GC 1894)
[12] = Streptococcus pneumoniae (GC 4565)
[13] = Streptococcus pyogenes (GC 4563)

Structure (SMILES): CC(c1ccccc1)C1NC(=O)CNC(=O)C(CO)NC(=O)C(C(O)C2CNC(=N)N2C2OC(CO)C(O)C(O)C2O)NC(=O)C(C(O)C2CNC(=N)N2)NC(=O)C(Cc2ccc3oc(SCc4ccc(-c5ccccc5)cc4)nc3c2)NC1=O (stereo not shown) [Example 47]
- MIC Enterococcus avium (GC 4558) (Enterococcus sp.; Enterococcus avium (GC 4558)): 2 µg/mL (≈ 1.67 µM)
- MIC Enterococcus faecalis (ATCC 29212) (Enterococcus sp.; [1]): 8 µg/mL (≈ 6.7 µM)
- MIC Enterococcus faecalis (GC 2242) (Enterococcus sp.; [2]): 4 µg/mL (≈ 3.35 µM)
- MIC Enterococcus faecalis (GC 2691) (Enterococcus sp.; [3]): 32 µg/mL (≈ 26.8 µM)
- MIC Enterococcus faecalis (GC 3059) (Enterococcus sp.; [4]): 32 µg/mL (≈ 26.8 µM)
- MIC Enterococcus faecalis (GC 4552) (Enterococcus sp.; [5]): 16 µg/mL (≈ 13.4 µM)
- MIC Enterococcus faecalis (GC 4553) (Enterococcus sp.; [6]): 4 µg/mL (≈ 3.35 µM)
- MIC Enterococcus faecalis (GC 4554) (Enterococcus sp.; [7]): 64 µg/mL (≈ 53.6 µM)
- MIC Enterococcus faecalis (GC 6189) (Enterococcus sp.; [8]): 32 µg/mL (≈ 26.8 µM)
- MIC Enterococcus faecium (GC 2243) (Enterococcus sp.; Enterococcus faecium (GC 2243)): 4 µg/mL (≈ 3.35 µM)
- MIC Enterococcus faecium (GC 4556) (Enterococcus sp.; Enterococcus faecium (GC 4556)): 8 µg/mL (≈ 6.7 µM)
- MIC Enterococcus faecium (GC 4557) (Enterococcus sp.; Enterococcus faecium (GC 4557)): 4 µg/mL (≈ 3.35 µM)
- MIC Enterococcus avium (GC 4558) (Enterococcus sp.): 2 µg/mL (≈ 1.67 µM)
- MIC Enterococcus faecalis (ATCC 29212) (Enterococcus sp.): 8 µg/mL (≈ 6.7 µM)
- MIC Enterococcus faecalis (GC 2242) (Enterococcus sp.): 4 µg/mL (≈ 3.35 µM)
- MIC Enterococcus faecalis (GC 2691) (Enterococcus sp.): 32 µg/mL (≈ 26.8 µM)
- MIC Enterococcus faecalis (GC 3059) (Enterococcus sp.): 32 µg/mL (≈ 26.8 µM)
- MIC Enterococcus faecalis (GC 4552) (Enterococcus sp.): 16 µg/mL (≈ 13.4 µM)
- MIC Enterococcus faecalis (GC 4553) (Enterococcus sp.): 4 µg/mL (≈ 3.35 µM)
- MIC Enterococcus faecalis (GC 4554) (Enterococcus sp.): 64 µg/mL (≈ 53.6 µM)
- MIC Enterococcus faecalis (GC 6189) (Enterococcus sp.): 32 µg/mL (≈ 26.8 µM)
- MIC Enterococcus faecium (GC 2243) (Enterococcus sp.): 4 µg/mL (≈ 3.35 µM)
- MIC Enterococcus faecium (GC 4556) (Enterococcus sp.): 8 µg/mL (≈ 6.7 µM)
- MIC Enterococcus faecium (GC 4557) (Enterococcus sp.): 4 µg/mL (≈ 3.35 µM)
- MIC Coagulase Negative Staphylococcus (GC 4547) (Staphylococcus sp.): 16 µg/mL (≈ 13.4 µM)
- MIC Coagulase Negative Staphylococcus (GC 4548) (Staphylococcus sp.): 2 µg/mL (≈ 1.67 µM)
- MIC Coagulase Negative Staphylococcus (GC 4549) (Staphylococcus sp.): 0.5 µg/mL (≈ 0.419 µM)
- MIC Coagulase Negative Staphylococcus (GC 4551) (Staphylococcus sp.): 8 µg/mL (≈ 6.7 µM)
- MIC Staphylococcus aureus SMITH (GC 4543) (Staphylococcus sp.): 8 µg/mL (≈ 6.7 µM)
- MIC Staphylococcus haemolyticus (GC 4546) (Staphylococcus sp.): 8 µg/mL (≈ 6.7 µM)
- MIC Staphylococcus aureus-SMITH (GC 4543) (Staphylococcus sp.): 8 µg/mL (≈ 6.7 µM)
- MIC Streptococcus agalactiae (GC 4564) (Streptococcus sp.; [9]): 2 µg/mL (≈ 1.67 µM)
- MIC Streptococcus pneumoniae (ATCC 6301) (Streptococcus sp.; [10]): 4 µg/mL (≈ 3.35 µM)
- MIC Streptococcus pneumoniae (GC 1894) (Streptococcus sp.; [11]): 2 µg/mL (≈ 1.67 µM)
- MIC Streptococcus pneumoniae (GC 4565) (Streptococcus sp.; [12]): 8 µg/mL (≈ 6.7 µM)
- MIC Streptococcus pyogenes (GC 4563) (Streptococcus sp.; [13]): 1 µg/mL (≈ 0.837 µM)
- MIC Streptococcus agalactiae (GC 4564) (Streptococcus sp.): 2 µg/mL (≈ 1.67 µM)
- MIC Streptococcus pneumoniae (ATCC 6301) (Streptococcus sp.): 4 µg/mL (≈ 3.35 µM)
- MIC Streptococcus pneumoniae (GC 1894) (Streptococcus sp.): 2 µg/mL (≈ 1.67 µM)
- MIC Streptococcus pneumoniae (GC 4565) (Streptococcus sp.): 8 µg/mL (≈ 6.7 µM)
- MIC Streptococcus pyogenes (GC 4563) (Streptococcus sp.): 1 µg/mL (≈ 0.837 µM)
- MIC Escherichia coli (ATCC 25922) (Escherichia coli): >64 µg/mL
- MIC Escherichia coli (GC 4559) (Escherichia coli): >64 µg/mL
- MIC Escherichia coli (GC 4560) (Escherichia coli): 32 µg/mL (≈ 26.8 µM)

Structure (SMILES): CC(c1ccccc1)C1NC(=O)CNC(=O)C(CO)NC(=O)C(C(O)C2CNC(=N)N2C2OC(CO)C(O)C(O)C2O)NC(=O)C(C(O)C2CNC(=N)N2)NC(=O)C(Cc2ccc3oc(SCC(=O)c4ccccc4)nc3c2)NC1=O (stereo not shown) [Example 48]
- MIC Enterococcus avium (GC 4558) (Enterococcus sp.; Enterococcus avium (GC 4558)): 8 µg/mL (≈ 6.98 µM)
- MIC Enterococcus faecalis (ATCC 29212) (Enterococcus sp.; [1]): 64 µg/mL (≈ 55.8 µM)
- MIC Enterococcus faecalis (GC 2242) (Enterococcus sp.; [2]): 64 µg/mL (≈ 55.8 µM)
- MIC Enterococcus faecalis (GC 2691) (Enterococcus sp.; [3]): 64 µg/mL (≈ 55.8 µM)
- MIC Enterococcus faecalis (GC 3059) (Enterococcus sp.; [4]): 64 µg/mL (≈ 55.8 µM)
- MIC Enterococcus faecalis (GC 4552) (Enterococcus sp.; [5]): 64 µg/mL (≈ 55.8 µM)
- MIC Enterococcus faecalis (GC 4553) (Enterococcus sp.; [6]): 16 µg/mL (≈ 14 µM)
- MIC Enterococcus faecalis (GC 4554) (Enterococcus sp.; [7]): 64 µg/mL (≈ 55.8 µM)
- MIC Enterococcus faecalis (GC 6189) (Enterococcus sp.; [8]): 64 µg/mL (≈ 55.8 µM)
- MIC Enterococcus faecium (GC 2243) (Enterococcus sp.; Enterococcus faecium (GC 2243)): 16 µg/mL (≈ 14 µM)
- MIC Enterococcus faecium (GC 4556) (Enterococcus sp.; Enterococcus faecium (GC 4556)): 64 µg/mL (≈ 55.8 µM)
- MIC Enterococcus faecium (GC 4557) (Enterococcus sp.; Enterococcus faecium (GC 4557)): 4 µg/mL (≈ 3.49 µM)
- MIC Enterococcus avium (GC 4558) (Enterococcus sp.): 8 µg/mL (≈ 6.98 µM)
- MIC Enterococcus faecalis (ATCC 29212) (Enterococcus sp.): 64 µg/mL (≈ 55.8 µM)
- MIC Enterococcus faecalis (GC 2242) (Enterococcus sp.): 64 µg/mL (≈ 55.8 µM)
- MIC Enterococcus faecalis (GC 2691) (Enterococcus sp.): 64 µg/mL (≈ 55.8 µM)
- MIC Enterococcus faecalis (GC 3059) (Enterococcus sp.): 64 µg/mL (≈ 55.8 µM)
- MIC Enterococcus faecalis (GC 4552) (Enterococcus sp.): 64 µg/mL (≈ 55.8 µM)
- MIC Enterococcus faecalis (GC 4553) (Enterococcus sp.): 16 µg/mL (≈ 14 µM)
- MIC Enterococcus faecalis (GC 4554) (Enterococcus sp.): 64 µg/mL (≈ 55.8 µM)
- MIC Enterococcus faecalis (GC 6189) (Enterococcus sp.): 64 µg/mL (≈ 55.8 µM)
- MIC Enterococcus faecium (GC 2243) (Enterococcus sp.): 16 µg/mL (≈ 14 µM)
- MIC Enterococcus faecium (GC 4556) (Enterococcus sp.): 64 µg/mL (≈ 55.8 µM)
- MIC Enterococcus faecium (GC 4557) (Enterococcus sp.): 4 µg/mL (≈ 3.49 µM)
- MIC Coagulase Negative Staphylococcus (GC 4547) (Staphylococcus sp.): 4 µg/mL (≈ 3.49 µM)
- MIC Coagulase Negative Staphylococcus (GC 4548) (Staphylococcus sp.): 8 µg/mL (≈ 6.98 µM)
- MIC Coagulase Negative Staphylococcus (GC 4549) (Staphylococcus sp.): 4 µg/mL (≈ 3.49 µM)
- MIC Coagulase Negative Staphylococcus (GC 4551) (Staphylococcus sp.): 16 µg/mL (≈ 14 µM)
- MIC Staphylococcus aureus SMITH (GC 4543) (Staphylococcus sp.): 16 µg/mL (≈ 14 µM)
- MIC Staphylococcus haemolyticus (GC 4546) (Staphylococcus sp.): 8 µg/mL (≈ 6.98 µM)
- MIC Staphylococcus aureus-SMITH (GC 4543) (Staphylococcus sp.): 16 µg/mL (≈ 14 µM)
- MIC Streptococcus agalactiae (GC 4564) (Streptococcus sp.; [9]): 16 µg/mL (≈ 14 µM)
- MIC Streptococcus pneumoniae (ATCC 6301) (Streptococcus sp.; [10]): 16 µg/mL (≈ 14 µM)
- MIC Streptococcus pneumoniae (GC 1894) (Streptococcus sp.; [11]): 8 µg/mL (≈ 6.98 µM)
- MIC Streptococcus pneumoniae (GC 4565) (Streptococcus sp.; [12]): 32 µg/mL (≈ 27.9 µM)
- MIC Streptococcus pyogenes (GC 4563) (Streptococcus sp.; [13]): 8 µg/mL (≈ 6.98 µM)
- MIC Streptococcus agalactiae (GC 4564) (Streptococcus sp.): 16 µg/mL (≈ 14 µM)
- MIC Streptococcus pneumoniae (ATCC 6301) (Streptococcus sp.): 16 µg/mL (≈ 14 µM)
- MIC Streptococcus pneumoniae (GC 1894) (Streptococcus sp.): 8 µg/mL (≈ 6.98 µM)
- MIC Streptococcus pneumoniae (GC 4565) (Streptococcus sp.): 32 µg/mL (≈ 27.9 µM)
- MIC Streptococcus pyogenes (GC 4563) (Streptococcus sp.): 8 µg/mL (≈ 6.98 µM)
- MIC Escherichia coli (ATCC 25922) (Escherichia coli): 32 µg/mL (≈ 27.9 µM)
- MIC Escherichia coli (GC 4559) (Escherichia coli): 32 µg/mL (≈ 27.9 µM)
- MIC Escherichia coli (GC 4560) (Escherichia coli): 4 µg/mL (≈ 3.49 µM)
